In brackets after ≈: the same amount, converted by molar mass. Where two headings read alike, the source gives them in different places.
What was measured:
[1] = Solubility of clonazepam in binary solvent mixtures; conditions: triacetin/glycofurol 50:50 mixture, 25 °C, organic solvent or mixture, thermodynamic from solid
Description: Further, the solubility of clonazepam in binary mixtures of Transcutol® (TC), triacetin (TA), glycofurol (GF) and propylene glycol (PG) was evaluated. Solubility limits of clonazepam were determined for the following formulations:
Excess drug (50 mg) was capped with about 500 μL of the solvent matrix in a 1.5 mL microfuge tube and the solution was mixed on a vortex shaker for several minutes. Thereafter, the solution was placed in an ultrasonic bath at 25° C. for 45 minutes. The temperature was regulated with a thermometer and controlled by adding ice into the bath. After 15 minutes of standing, the solutions were centrifuged at 3,000×g for 30 minutes. Solutions were then stored for 16 hours at 25° C. in an ICH cabinet protected from light.

[2] = Drug recovery, degradation and binding to nasal sheep mucosa; format: in vitro ADME; conditions: sheep nasal mucosa (excised tissue) in buffer, 37° C., read-out: % recovery in the presence of nasal sheep mucosa
Description: (i) Drug recovery, degradation and binding to nasal sheep mucosa: The effect of drug recovery, degradation and binding to sheep nasal mucosa was determined. Briefly, a known surface area (approx. 1 cm^2) of sheep nasal mucosa was added into a glass vial containing a known concentration (10 μg/mL) of each drug prepared in the receiver fluid (10% ethanol in pH 6 buffer). The content of the vial was allowed to equilibrate at 37° C. over a period of 48 h. At 24 h intervals, a sample was removed and assayed via HPLC. The percentage of drug recovered was calculated using Equation 4: % drug recovered=(drug concentration at t=Y/drug concentration at t=Z)×100 (Equation 4)
where, Y=specific time point at 37° C. (in the presence of nasal sheep mucosa); and Z=specific time point at 37° C. (in the absence of nasal sheep mucosa).
In addition to the stability against heat degradation, the effect of drug binding or degradation in the presence of nasal sheep mucosa was also determined (Table 6).

[3] = Human safety and tolerability (side effects); format: in vivo
Text: Somnolence was reported by 10 of 15 (approximately 67%) subjects after intranasal dosing and 13 of 15 (approximately 87%) subjects after oral dosing. Approximately 93% of the subjects reported somnolence or sedation ( 11/15 for somnolence and 3/15 for sedation) after intravenous dosing. Nasal discomfort was reported by 12 of 15 subjects (approximately 80%) after intranasal dosing.

[4] = Saturated solubility in receiver fluid systems (HPLC); conditions: 37 °C, thermodynamic from solid
Description: Following the stability studies, a suitable receiver fluid was developed in order to ensure that sink conditions for tested drug were such that the drug release was limited by the solubility of the drug in the receiver fluid. […] Briefly, drug was saturated into different receiver fluid systems by adding excess drug and allowed to stir with a magnetic flea over a period of 2 h at 37° C. Each saturated solution was then filtered using a 0.2 μm syringe filter and the resultant solution was assayed via HPLC.
Calibration curves for clonazepam were constructed between 0.2 to 10 μg/mL with appropriate replicates to ensure repeatability and linearity.
Standards were prepared in receiver fluid (10% ethanol in buffer 6). […] The filtration at room temperature was performed as quickly as possible to minimize any drug precipitation as the temperature dropped from 37° C. during filtration.

## O=C1CN=C(c2ccccc2Cl)c2cc([N+](=O)[O-])ccc2N1 [Clonazepam, 5-(2-chlorophenyl)-1,3-dihydro-7-nitro-2H-1,4-benzodiazepin-2-one]
[1]
  solubility at 16 h: ~36400 µg/mL (≈ 115000 µM)
[2]; buffer pH 5 (10% ethanol)
  recovery at 24 h, 10 μg/mL: 97.8%
  recovery at 48 h, 10 μg/mL: 96.5%
[2]; buffer pH 6 (10% ethanol)
  recovery at 24 h, 10 μg/mL: 97.5%
  recovery at 48 h, 10 μg/mL: 97.1%
[2]; buffer pH 7 (10% ethanol)
  recovery at 24 h, 10 μg/mL: 99.3%
  recovery at 48 h, 10 μg/mL: 97.8%
[3]; after intranasal dosing, 10 of 15
  subjects reporting somnolence: approximately 67%
[3]; after intranasal dosing, 12 of 15
  subjects reporting nasal discomfort: approximately 80%
[3]; after intravenous dosing
  subjects reporting somnolence or sedation: Approximately 93%
  subjects with sedation: 3/15
  subjects with somnolence: 11/15
[3]; after oral dosing, 13 of 15
  subjects reporting somnolence: approximately 87%
[3]; human
  changes in laboratory parameters: no clinically relevant changes
[3]; human, all routes
  Somnolence reported in the study: 75.6%
  nasal discomfort reported in the study: 26.7%
[4]; pH 6, aqueous buffer, buffer pH 6, 37° C.
  solubility at 2 h: 13.7 µg/mL (≈ 43.3 µM)
[4]; pH 6, aqueous with cosolvent or surfactant or cyclodextrin, 20% ethanol in buffer pH6, 37° C.
  solubility at 2 h: 82.3 µg/mL (≈ 261 µM)
[4]; pH 6, aqueous with cosolvent or surfactant or cyclodextrin, receiver solution, 10% ethanol in buffer pH 6, 37° C.
  solubility at 2 h: 29.3 µg/mL (≈ 92.9 µM)

— US8609651B2, “Pharmaceutical compositions of benzodiazepines and method of use thereof” (Jazz Pharmaceuticals, Inc., priority 2006, dated 2013)
